Source: patent US20020137929A1, “1 - (3-heterocyclylphenyl) isothiourea, -isourea, -guanidine and -amidine herbicidal agents” (Intellectual Property Department, BASF Aktiengesellschaft, priority 1998, published 2002)

Tests used:
[1] = system: TRZAWR (Wheat, Winter, cv Riband); experiment: Postemergence herbicidal evaluation; format: in vivo, Triticum aestivum; settings: postemergence
In short: (§1)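 Each compound, dispersed in an acetone/water mix (50/50) carrying 0.5% TWEEN 20, is nozzle-sprayed at 40 psi on approximately two-week-old seedlings at about 0.0156–0.500 kg/ha. Plants are assessed 4–5 weeks afterward on a 0–9 scale relative to control; duplicate tests are averaged.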

MOOVA (Monochoria) = experiment: Postemergence weed control under flooded paddy conditions; format: in vivo, Monochoria vaginalis; settings: postemergence weeds, 3-4 weeks after treatment
In short: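 Containers holding 3–5 cm weeds and rice at 1.5–2.5 leaves are flooded to 1.5–3 cm above soil. Compound in 50/50 v/v aqueous/acetone is then added directly to the water, about 0.0313–0.500 kg/ha. Plants are kept in the greenhouse and rated 0–9 visually at 3–4 weeks.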

[2] = system: CHEAL (Lambsquarters, Common); experiment: Preemergence herbicidal evaluation; format: in vivo, Chenopodium album; settings: rated 4-5 weeks after treatment
In short: (§2)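 Scores (0–9) reflect visual comparison with control plants for stand, vigor, malformation, size and chlorosis. Compound was applied to the soil after sowing, before emergence, as an aqueous acetone spray (about 0.0156–0.500 kg/ha), and cups were kept in a greenhouse for 4–5 weeks.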

CASOB (Sicklepod) = experiment: Postemergence herbicidal evaluation; format: in vivo, Cassia obtusifolia; settings: postemergence
In short: as §1

[3] = system: IPOSS (Morningglory Spp.); experiment: Postemergence herbicidal evaluation; format: in vivo, Ipomoea Spp.
Description: In the tests, seedling plants are grown in jiffy flats for about two weeks. The test compounds are dispersed in 50/50 acetone/water mixtures containing 0.5% TWEEN®20, a polyoxyethylene sorbitan monolaurate surfactant of Atlas Chemical Industries, in sufficient quantities to provide the equivalent of about 0.0156 kg to 0.500 kg per hectare of active compound when applied to the plants through a spray nozzle operating at 40 psi for a predetermined time. After spraying, the plants are placed on greenhouse benches and are cared for in accordance with conventional greenhouse procedures. From four to five weeks after treatment, the seedling plants are examined and rated according to the rating system set forth below. Where more than one test is involved for a given compound, the data are averaged.
Plant species employed in these evaluations are reported by header abbreviation, common name and scientific name.
(§3) Results of herbicide evaluation are expressed on a rating scale (0-9). The scale is based upon a visual observation of plant stand, vigor, malformation, size, chlorosis and overall plant appearance as compared with a control.

ORYSAT (Rice, Tebonnet) = experiment: Preemergence herbicidal evaluation; format: in vivo, Oryza sativa, (L.) Tebonnet; settings: rated 4-5 weeks after treatment
In short: as §2

[4] = system: CHEAL (Lambsquarters, Common); experiment: Postemergence herbicidal evaluation; format: in vivo, Chenopodium album; settings: postemergence
In short: as §1

[5] = system: IPOSS (Morningglory Spp.); experiment: Preemergence herbicidal evaluation; format: in vivo, Ipomoea Spp.; settings: rated 4-5 weeks after treatment
From the text: as §3
The preemergence herbicidal activity of the test compounds of the present invention is exemplified by the following tests in which the seeds of a variety of monocotyledonous and dicotyledonous plants are separately mixed with potting soil and planted on top of approximately one inch of soil in separate pint cups. After planting, the cups are sprayed with the selected aqueous acetone solution containing test compound in sufficient quantity to provide the equivalent of about 0.0156 to 0.500 kg per hectare of test compound per cup. The treated cups are then placed on greenhouse benches, watered and cared for in accordance with conventional greenhouse procedures. From four to five weeks after treatment, the tests are terminated and each cup is examined and rated according to the rating system provided in Example 37.
The compounds evaluated are reported by compound number given in Example 37.

C=CCN1C(=O)CSC1=Nc1cc(N2C(=O)C3=C(CCCC3)C2=O)c(F)cc1Cl [Compound 2, N-{5-[(3-allyl-4-oxo-2-thiazolidinylidene)amino]-4-chloro-2-fluorophenyl}-1-cyclohexene-1,2-dicarboximide]
TRZAWR herbicidal rating ([1]; rate 0.0157 kg/ha): 1.5
TRZAWR herbicidal rating ([1]; rate 0.0313 kg/ha): 2.5
TRZAWR herbicidal rating ([1]; rate 0.0625 kg/ha): 3.0
TRZAWR herbicidal rating ([1]; rate 0.1250 kg/ha): 2.5
TRZAWR herbicidal rating ([1]; rate 0.2500 kg/ha): 2.5
TRZAWR herbicidal rating ([1]; rate 0.5000 kg/ha): 3.0
Herbicidal rating MOOVA (MOOVA (Monochoria); rate 0.0313 kg/ha): 2.0
Herbicidal rating MOOVA (MOOVA (Monochoria); rate 0.0625 kg/ha): 4.5
Herbicidal rating MOOVA (MOOVA (Monochoria); rate 0.1250 kg/ha): 5.5
Herbicidal rating MOOVA (MOOVA (Monochoria); rate 0.2500 kg/ha): 9.0
Herbicidal rating MOOVA (MOOVA (Monochoria); rate 0.5000 kg/ha): 9.0
CHEAL preemergence herbicidal rating ([2]; rate 0.0313 kg/ha): 7.0
CHEAL preemergence herbicidal rating ([2]; rate 0.2500 kg/ha): 9.0
CHEAL preemergence herbicidal rating ([2]; rate 0.5000 kg/ha): 9.0
CASOB herbicidal rating (CASOB (Sicklepod); rate 0.0157 kg/ha): 4.0
CASOB herbicidal rating (CASOB (Sicklepod); rate 0.0313 kg/ha): 4.0
CASOB herbicidal rating (CASOB (Sicklepod); rate 0.0625 kg/ha): 2.0
CASOB herbicidal rating (CASOB (Sicklepod); rate 0.1250 kg/ha): 2.0
CASOB herbicidal rating (CASOB (Sicklepod); rate 0.2500 kg/ha): 4.0
CASOB herbicidal rating (CASOB (Sicklepod); rate 0.5000 kg/ha): 7.0
IPOSS herbicidal rating ([3]; rate 0.0157 kg/ha): 4.0
IPOSS herbicidal rating ([3]; rate 0.0313 kg/ha): 4.0
IPOSS herbicidal rating ([3]; rate 0.0625 kg/ha): 4.0
IPOSS herbicidal rating ([3]; rate 0.1250 kg/ha): 6.0
IPOSS herbicidal rating ([3]; rate 0.2500 kg/ha): 9.0
IPOSS herbicidal rating ([3]; rate 0.5000 kg/ha): 9.0
ORYSAT preemergence herbicidal rating (ORYSAT (Rice, Tebonnet); rate 0.0313 kg/ha): 2.0
ORYSAT preemergence herbicidal rating (ORYSAT (Rice, Tebonnet); rate 0.0625 kg/ha): 2.0
ORYSAT preemergence herbicidal rating (ORYSAT (Rice, Tebonnet); rate 0.1250 kg/ha): 2.0
ORYSAT preemergence herbicidal rating (ORYSAT (Rice, Tebonnet); rate 0.2500 kg/ha): 2.0
ORYSAT preemergence herbicidal rating (ORYSAT (Rice, Tebonnet); rate 0.5000 kg/ha): 3.0
CHEAL herbicidal rating ([4]; rate 0.0157 kg/ha): 7.0
CHEAL herbicidal rating ([4]; rate 0.0313 kg/ha): 6.0
CHEAL herbicidal rating ([4]; rate 0.0625 kg/ha): 8.0
CHEAL herbicidal rating ([4]; rate 0.1250 kg/ha): 9.0
CHEAL herbicidal rating ([4]; rate 0.2500 kg/ha): 7.0
CHEAL herbicidal rating ([4]; rate 0.5000 kg/ha): 9.0
IPOSS preemergence herbicidal rating ([5]; rate 0.0313 kg/ha): 0.0
IPOSS preemergence herbicidal rating ([5]; rate 0.0625 kg/ha): 0.0
IPOSS preemergence herbicidal rating ([5]; rate 0.1250 kg/ha): 0.0
IPOSS preemergence herbicidal rating ([5]; rate 0.2500 kg/ha): 0.0
IPOSS preemergence herbicidal rating ([5]; rate 0.5000 kg/ha): 0.0

CN1C(=O)CS/C1=N/c1cc(-n2c(=O)cc(C(F)(F)F)n(C)c2=O)c(F)cc1Cl [Compound 7]
TRZAWR herbicidal rating ([1]; rate 0.0157 kg/ha): 4.5
TRZAWR herbicidal rating ([1]; rate 0.0313 kg/ha): 3.0
TRZAWR herbicidal rating ([1]; rate 0.0625 kg/ha): 5.0
TRZAWR herbicidal rating ([1]; rate 0.1250 kg/ha): 6.0
Herbicidal rating MOOVA (MOOVA (Monochoria); rate 0.0313 kg/ha): 9.0
Herbicidal rating MOOVA (MOOVA (Monochoria); rate 0.0625 kg/ha): 9.0
Herbicidal rating MOOVA (MOOVA (Monochoria); rate 0.1250 kg/ha): 9.0
Herbicidal rating MOOVA (MOOVA (Monochoria); rate 0.2500 kg/ha): 9.0
CHEAL preemergence herbicidal rating ([2]; rate 0.0157 kg/ha): 9.0
CHEAL preemergence herbicidal rating ([2]; rate 0.0313 kg/ha): 9.0
CHEAL preemergence herbicidal rating ([2]; rate 0.0625 kg/ha): 9.0
CHEAL preemergence herbicidal rating ([2]; rate 0.1250 kg/ha): 9.0
CHEAL preemergence herbicidal rating ([2]; rate 0.2500 kg/ha): 9.0
CASOB herbicidal rating (CASOB (Sicklepod); rate 0.0157 kg/ha): 4.0
CASOB herbicidal rating (CASOB (Sicklepod); rate 0.0313 kg/ha): 5.0
CASOB herbicidal rating (CASOB (Sicklepod); rate 0.0625 kg/ha): 5.0
CASOB herbicidal rating (CASOB (Sicklepod); rate 0.1250 kg/ha): 7.0
IPOSS herbicidal rating ([3]; rate 0.0157 kg/ha): 6.0
IPOSS herbicidal rating ([3]; rate 0.0313 kg/ha): 7.0
IPOSS herbicidal rating ([3]; rate 0.0625 kg/ha): 9.0
ORYSAT preemergence herbicidal rating (ORYSAT (Rice, Tebonnet); rate 0.0157 kg/ha): 5.0
ORYSAT preemergence herbicidal rating (ORYSAT (Rice, Tebonnet); rate 0.0313 kg/ha): 7.5
ORYSAT preemergence herbicidal rating (ORYSAT (Rice, Tebonnet); rate 0.0625 kg/ha): 8.0
ORYSAT preemergence herbicidal rating (ORYSAT (Rice, Tebonnet); rate 0.1250 kg/ha): 8.5
ORYSAT preemergence herbicidal rating (ORYSAT (Rice, Tebonnet); rate 0.2500 kg/ha): 9.0
CHEAL herbicidal rating ([4]; rate 0.0157 kg/ha): 0.0
CHEAL herbicidal rating ([4]; rate 0.0313 kg/ha): 5.0
CHEAL herbicidal rating ([4]; rate 0.0625 kg/ha): 6.0
CHEAL herbicidal rating ([4]; rate 0.1250 kg/ha): 9.0
IPOSS preemergence herbicidal rating ([5]; rate 0.0157 kg/ha): 9.0
IPOSS preemergence herbicidal rating ([5]; rate 0.0313 kg/ha): 9.0
IPOSS preemergence herbicidal rating ([5]; rate 0.0625 kg/ha): 9.0
IPOSS preemergence herbicidal rating ([5]; rate 0.1250 kg/ha): 9.0
IPOSS preemergence herbicidal rating ([5]; rate 0.2500 kg/ha): 9.0
